From patent US20260028365A1 (BIOGEN MA INC., priority 2022, published 2026)
Structures can show the parent of a compound that is named as a salt.

Columns and labels:
[1] = target: JH2 domain of human Tyk2 (Homo sapiens (Human), UniProt P29597); assay: JH2 Biochemical Assay (TR-FRET probe displacement); type: binding; conditions: JH2 domain of human Tyk2, TR-FRET probe displacement
[2] = target: Tyk2 (Homo sapiens (Human), UniProt P29597); assay: pSTAT4 Cell Assay (MSD, NK92 cells); type: cell-based; conditions: MSD
Tyk2, sequence (P29597 whole entry): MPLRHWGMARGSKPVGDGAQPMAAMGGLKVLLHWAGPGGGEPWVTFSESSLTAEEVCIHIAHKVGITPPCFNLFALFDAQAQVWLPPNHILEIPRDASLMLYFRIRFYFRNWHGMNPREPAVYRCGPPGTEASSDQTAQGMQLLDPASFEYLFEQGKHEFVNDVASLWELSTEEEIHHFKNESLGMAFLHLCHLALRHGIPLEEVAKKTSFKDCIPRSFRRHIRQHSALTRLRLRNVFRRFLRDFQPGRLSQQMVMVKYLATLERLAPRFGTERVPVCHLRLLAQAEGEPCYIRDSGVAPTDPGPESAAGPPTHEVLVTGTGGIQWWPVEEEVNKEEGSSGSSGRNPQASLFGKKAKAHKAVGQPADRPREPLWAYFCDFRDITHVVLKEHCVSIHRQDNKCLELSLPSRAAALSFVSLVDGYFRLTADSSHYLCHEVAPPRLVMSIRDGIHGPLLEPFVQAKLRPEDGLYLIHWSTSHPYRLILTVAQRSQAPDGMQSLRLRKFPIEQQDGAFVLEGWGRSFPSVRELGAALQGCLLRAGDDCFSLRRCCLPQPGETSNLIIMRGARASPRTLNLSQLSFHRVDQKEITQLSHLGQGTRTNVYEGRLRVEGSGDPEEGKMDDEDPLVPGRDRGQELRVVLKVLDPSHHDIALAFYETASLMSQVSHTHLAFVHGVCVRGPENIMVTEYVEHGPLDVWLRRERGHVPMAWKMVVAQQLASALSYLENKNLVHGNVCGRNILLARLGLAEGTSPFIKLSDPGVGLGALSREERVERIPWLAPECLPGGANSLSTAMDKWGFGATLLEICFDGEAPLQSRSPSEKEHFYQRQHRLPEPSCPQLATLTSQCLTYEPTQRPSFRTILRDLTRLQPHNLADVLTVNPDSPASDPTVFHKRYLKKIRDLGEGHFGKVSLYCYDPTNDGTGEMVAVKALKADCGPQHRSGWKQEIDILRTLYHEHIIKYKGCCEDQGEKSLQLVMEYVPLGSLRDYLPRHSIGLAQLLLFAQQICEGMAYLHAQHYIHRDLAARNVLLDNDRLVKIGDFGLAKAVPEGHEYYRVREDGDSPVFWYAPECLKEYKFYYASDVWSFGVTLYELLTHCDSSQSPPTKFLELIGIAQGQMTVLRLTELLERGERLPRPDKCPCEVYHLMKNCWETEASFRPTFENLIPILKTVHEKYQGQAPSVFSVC

JH2 domain of human Tyk2, sequence (P29597 575-876): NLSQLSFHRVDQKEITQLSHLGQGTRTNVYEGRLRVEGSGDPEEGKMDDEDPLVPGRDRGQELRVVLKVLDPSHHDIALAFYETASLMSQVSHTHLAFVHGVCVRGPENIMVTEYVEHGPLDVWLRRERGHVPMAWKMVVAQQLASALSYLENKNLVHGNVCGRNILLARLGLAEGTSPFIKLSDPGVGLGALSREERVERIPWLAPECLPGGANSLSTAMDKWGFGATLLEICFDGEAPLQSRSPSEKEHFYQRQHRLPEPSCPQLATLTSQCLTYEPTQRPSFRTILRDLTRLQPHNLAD

| Compound | IC50 [1] | IC50 [2] |
| --- | --- | --- |
| CCOc1cnc(NC(C)=O)cc1Nc1cc(OC2CC(F)C2)nc(C(C)(F)F)n1 (centres unmarked) [Example 457, N-(4-((2-(1,1-difluoroethyl)-6-(3-fluorocyclobutoxy)pyrimidin-4-yl)amino)-5-ethoxypyridin-2-yl)acetamide trifluoroacetate] | ≤ 0.01 µM | 0.01 to 0.1 µM |
| CCOc1cnc(NC(C)=O)cc1Nc1cc(O[C@H]2C[C@@H](F)C2)nc(C(C)(F)F)n1 [Example 458, N-(4-((2-(1,1-difluoroethyl)-6-((1s,3s)-3-fluorocyclobutoxy)pyrimidin-4-yl)amino)-5-ethoxypyridin-2-yl)acetamide] | ≤ 0.01 µM | ≤ 0.01 µM |
| CCOc1cnc(NC(C)=O)cc1Nc1cc(OC2CC(F)(F)C2)nc(C(C)(F)F)n1 [Example 459, N-(4-((6-(3,3-difluorocyclobutoxy)-2-(1,1-difluoroethyl)pyrimidin-4-yl)amino)-5-ethoxypyridin-2-yl)acetamide] | ≤ 0.01 µM | 0.01 to 0.1 µM |
| COc1cnc(NC(C)=O)cc1Nc1cc(OC2CC(F)(F)C2)nc(C(C)(F)F)n1 [Example 460, N-(4-((6-(3,3-difluorocyclobutoxy)-2-(1,1-difluoroethyl)pyrimidin-4-yl)amino)-5-methoxypyridin-2-yl)acetamide] | ≤ 0.01 µM | 0.01 to 0.1 µM |
| COc1cnc(NC(C)=O)cc1Nc1cc(O[C@H]2C[C@@H](F)C2)nc(C(C)(F)F)n1 [Example 461, N-(4-((2-(1,1-difluoroethyl)-6-((1s,3s)-3-fluorocyclobutoxy)pyrimidin-4-yl)amino)-5-methoxypyridin-2-yl)acetamide] | ≤ 0.01 µM | 0.01 to 0.1 µM |
| CCOc1cnc(NC(C)=O)cc1Nc1cc(OC2CCC2)nc(C(C)(F)F)n1 [Example 462, N-(4-((6-cyclobutoxy-2-(1,1-difluoroethyl)pyrimidin-4-yl)amino)-5-ethoxypyridin-2-yl)acetamide] | ≤ 0.01 µM | ≤ 0.01 µM |
| CCOc1cnc(NC(C)=O)cc1Nc1cc(OC2CC(C#N)C2)nc(C(C)(F)F)n1 (centres unmarked) [Example 463, N-(4-((6-(3-cyanocyclobutoxy)-2-(1,1-difluoroethyl)pyrimidin-4-yl)amino)-5-ethoxypyridin-2-yl)acetamide] | ≤ 0.01 µM | ≤ 0.01 µM |
| CCOc1cnc(NC(C)=O)cc1Nc1cc(OC2CC(C)C2)nc(C(C)(F)F)n1 (centres unmarked) [Example 464, N-(4-((2-(1,1-difluoroethyl)-6-(3-methylcyclobutoxy)pyrimidin-4-yl)amino)-5-ethoxypyridin-2-yl)acetamide] | ≤ 0.01 µM | ≤ 0.01 µM |
| CC(=O)Nc1cc(Nc2cc(C)nc(C(C)(F)F)n2)c(OCC2CC(F)(F)C2)cn1 [Example 465, N-(5-((3,3-difluorocyclobutyl)methoxy)-4-((2-(1,1-difluoroethyl)-6-methylpyrimidin-4-yl)amino)pyridin-2-yl)acetamide] | ≤ 0.01 µM | 0.01 to 0.1 µM |
| CC(=O)Nc1cc(Nc2cc(C)nc(C(C)(F)F)n2)c(OCc2cccc(F)c2)cn1 [Example 466, N-(4-((2-(1,1-difluoroethyl)-6-methylpyrimidin-4-yl)amino)-5-((3-fluorobenzyl)oxy)pyridin-2-yl)acetamide] | ≤ 0.01 µM | 0.01 to 0.1 µM |
| CC(=O)Nc1cc(Nc2cc(C)nc(C(C)(F)F)n2)c(OCc2ccc(F)c(F)c2)cn1 [Example 467, N-(5-((3,4-difluorobenzyl)oxy)-4-((2-(1,1-difluoroethyl)-6-methylpyrimidin-4-yl)amino)pyridin-2-yl)acetamide] | ≤ 0.01 µM | 0.01 to 0.1 µM |
| CC(=O)Nc1cc(Nc2cc(C)nc(C(C)(F)F)n2)c(OCc2cccnc2C)cn1 [Example 469, N-(4-((2-(1,1-difluoroethyl)-6-methylpyrimidin-4-yl)amino)-5-((2-methylpyridin-3-yl)methoxy)pyridin-2-yl)acetamide] | ≤ 0.01 µM | 0.1 to 1 µM |
| CC(=O)Nc1cc(Nc2cc(C)nc(C(C)(F)F)n2)c(OCc2cnccc2C)cn1 [Example 470, N-(4-((2-(1,1-difluoroethyl)-6-methylpyrimidin-4-yl)amino)-5-((4-methylpyridin-3-yl)methoxy)pyridin-2-yl)acetamide] | ≤ 0.01 µM | 0.1 to 1 µM |
| CC(=O)Nc1cc(Nc2cc(C)nc(C(C)(F)F)n2)c(OCc2ncccc2C)cn1 [Example 471, N-(4-((2-(1,1-difluoroethyl)-6-methylpyrimidin-4-yl)amino)-5-((3-methylpyridin-2-yl)methoxy)pyridin-2-yl)acetamide] | 0.01 to 0.1 µM | 0.1 to 1 µM |
| COc1cccnc1COc1cnc(NC(C)=O)cc1Nc1cc(C)nc(C(C)(F)F)n1 [Example 472, N-(4-((2-(1,1-difluoroethyl)-6-methylpyrimidin-4-yl)amino)-5-((3-methoxypyridin-2-yl)methoxy)pyridin-2-yl)acetamide] | 0.01 to 0.1 µM | 0.1 to 1 µM |
| CC(=O)Nc1cc(Nc2cc(C)nc(C(C)(F)F)n2)c(OCc2ccncc2)cn1 [Example 473, N-(4-((2-(1,1-difluoroethyl)-6-methylpyrimidin-4-yl)amino)-5-((pyridin-4-yl)methoxy)pyridin-2-yl)acetamide] | ≤ 0.01 µM | 0.01 to 0.1 µM |

| Compound | IC50 [1] | IC50 [2] |
| --- | --- | --- |
| CC(=O)Nc1cc(Nc2cc(C)nc(C(C)(F)F)n2)c(OCc2cncc(F)c2)cn1 [Example 474, N-(4-((2-(1,1-difluoroethyl)-6-methylpyrimidin-4-yl)amino)-5-((5-fluoropyridin-3-yl)methoxy)pyridin-2-yl)acetamide] | ≤ 0.01 µM | 0.01 to 0.1 µM |
| CC(=O)Nc1cc(Nc2cc(C)nc(C(C)(F)F)n2)c(OCc2ccn(C)n2)cn1 [Example 475, N-(4-((2-(1,1-difluoroethyl)-6-methylpyrimidin-4-yl)amino)-5-((1-methyl-1H-pyrazol-3-yl)methoxy)pyridin-2-yl)acetamide] | ≤ 0.01 µM | 0.01 to 0.1 µM |
| CC(=O)Nc1cc(Nc2cc(C)nc(C(C)(F)F)n2)c(OCCc2ccccn2)cn1 [Example 476, N-(4-((2-(1,1-difluoroethyl)-6-methylpyrimidin-4-yl)amino)-5-(2-(pyridin-2-yl)ethoxy)pyridin-2-yl)acetamide] | ≤ 0.01 µM | 0.01 to 0.1 µM |
| CC(=O)Nc1cc(Nc2cc(C)nc(C(C)(F)F)n2)c(OC2CCOC2)cn1 (centres unmarked) [Example 477, N-(4-((2-(1,1-difluoroethyl)-6-methylpyrimidin-4-yl)amino)-5-((tetrahydrofuran-3-yl)oxy)pyridin-2-yl)acetamide] | ≤ 0.01 µM | 0.01 to 0.1 µM |
| CC(=O)Nc1cc(Nc2cc(C)nc(C(C)(F)F)n2)c(OC2CCN(C)C2)cn1 (centres unmarked) [Example 478, N-(4-((2-(1,1-difluoroethyl)-6-methylpyrimidin-4-yl)amino)-5-((1-methylpyrrolidin-3-yl)oxy)pyridin-2-yl)acetamide] | ≤ 0.01 µM | 0.1 to 1 µM |
| CC(=O)Nc1cc(Nc2cc(C)nc(C(C)(F)F)n2)c(OCC2CCCN2C)cn1 (centres unmarked) [Example 479, N-(4-((2-(1,1-difluoroethyl)-6-methylpyrimidin-4-yl)amino)-5-((1-methylpyrrolidin-2-yl)methoxy)pyridin-2-yl)acetamide] | ≤ 0.01 µM | 0.1 to 1 µM |
| CC(=O)Nc1cc(Nc2cc(C)nc(C(C)(F)F)n2)c(OCC2CCCO2)cn1 (centres unmarked) [Example 481, N-(4-((2-(1,1-difluoroethyl)-6-methylpyrimidin-4-yl)amino)-5-((tetrahydrofuran-2-yl)methoxy)pyridin-2-yl)acetamide] | ≤ 0.01 µM | 0.01 to 0.1 µM |
| CC(=O)Nc1cc(Nc2cc(C)nc(C(C)(F)F)n2)c(OCCOC(C)C)cn1 [Example 482, N-(4-((2-(1,1-difluoroethyl)-6-methylpyrimidin-4-yl)amino)-5-(2-isopropoxyethoxy)pyridin-2-yl)acetamide] | ≤ 0.01 µM | 0.01 to 0.1 µM |
| CC(=O)Nc1cc(Nc2cc(C)nc(C(C)(F)F)n2)c(OCC2(F)COC2)cn1 [Example 483, N-(4-((2-(1,1-difluoroethyl)-6-methylpyrimidin-4-yl)amino)-5-((3-fluorooxetan-3-yl)methoxy)pyridin-2-yl)acetamide] | ≤ 0.01 µM | 0.01 to 0.1 µM |
| CC(=O)Nc1cc(Nc2cc(C)nc(C(C)(F)F)n2)c(OCc2ccc3c(c2)OCO3)cn1 [Example 484, N-(5-(benzo[d][1,3]dioxol-5-ylmethoxy)-4-((2-(1,1-difluoroethyl)-6-methylpyrimidin-4-yl)amino)pyridin-2-yl)acetamide] | ≤ 0.01 µM | 0.01 to 0.1 µM |
| CCOc1cnc(NC(C)=O)cc1Nc1cc(NC)nc(C(C)(F)F)n1 [Example 485, N-(4-((2-(1,1-difluoroethyl)-6-(methylamino)pyrimidin-4-yl)amino)-5-ethoxypyridin-2-yl)acetamide] | ≤ 0.01 µM | 0.01 to 0.1 µM |
| CC(=O)Nc1cc(Nc2cc(OC3CC3)nc(C(C)(F)F)n2)c(OCc2ccccc2)cn1 [Example 487, N-(5-(benzyloxy)-4-((6-cyclopropoxy-2-(1,1-difluoroethyl)pyrimidin-4-yl)amino)pyridin-2-yl)acetamide] | ≤ 0.01 µM | ≤ 0.01 µM |
| CCOc1cnc(NC(C)=O)cc1Nc1ccc(-c2ccn(C)n2)c(OC)n1 [Example 491, N-(5-ethoxy-4-((6-methoxy-5-(1-methyl-1H-pyrazol-3-yl)pyridin-2-yl)amino)pyridin-2-yl)acetamide] | 0.01 to 0.1 µM | ≥ 1 µM |
| COC(C)(C)COc1cnc(NC(C)=O)cc1Nc1cc(C)nc(C(C)(F)F)n1 [Example 492, N-(4-((2-(1,1-difluoroethyl)-6-methylpyrimidin-4-yl)amino)-5-(2-methoxy-2-methylpropoxy)pyridin-2-yl)acetamide] | ≤ 0.01 µM | 0.01 to 0.1 µM |
| COC1(COc2cnc(NC(C)=O)cc2Nc2cc(C)nc(C(C)(F)F)n2)CCC1 [Example 493, N-(4-((2-(1,1-difluoroethyl)-6-methylpyrimidin-4-yl)amino)-5-((1-methoxycyclobutyl)methoxy)pyridin-2-yl)acetamide] | ≤ 0.01 µM | 0.01 to 0.1 µM |
